Experimental data taken from patent US5462726A, “Method of inhibiting side effects of solvents containing ricinoleic acid or castor oil or derivatives thereof employing a thromboxane A2 receptor antagonist and pharmaceutical compositions containing such solvents” (priority 1993, dated 1995).
In brackets after ≈: the same amount, converted by molar mass. Entries after “also recorded” stand apart in the source; their conditions may differ. Structures can show the parent of a compound that is named as a salt. Where two headings read alike, the source gives them in different places.

Tests used:
[1] = test system: Cremophor-induced force development in the jugular vein (thromboxane A2 receptors); assay: Inhibition of Cremophor-induced force in the jugular vein; type: cell-based, rabbit; conditions: for Effect on vasoconstrictor effects of Cremophor (words): indomethacin 10 μM
Method: (§1) Male New Zealand white rabbits were euthanized by intravenous barbiturate overdose. The thoracic aorta and the left and right external jugular veins were then removed into warm (37° C.) physiological salt solution (PSS) of the following composition (mM): NaCl, 118.4; KCl, 4.7; CaCl2, 2.5; MgSO4, 1.2; NaHCO3, 24.9; KH2 PO4, 1.2; glucose, 11.1 and EDTA, 0.023; gassed with 95% O2 /5% CO2, pH 7.4. The vessels were cleaned of fat and loose adventitia and subsequently cut into rings 3-4 mm in width. The endothelium was removed from the rings, unless otherwise indicated, by gently rotating a metal probe in the lumen of the ring. The rings were then suspended in water-jacketed (37° C.) 10 ml tissue baths between two wire holders, one of which was attached to a fixed hook and the other to an isometric force transducer. Resting tension was set at 4 g for the aorta and 1 g for the jugular vein. The venous tissues were allowed to stabilize for a period of one hour and then challenged with a maximally effective concentration of bradykinin (1 μM) to evoke a tonic contracture. This response was used as a comparative reference response. Carbachol (1 μM) was introduced into the bath following stabilization of the bradykinin contracture to test for the presence of endothelium. […] The tissues were washed multiple times with fresh PSS and allowed to recover for one hour following complete relaxation from the previous bradykinin response. […] Inhibitors (enzyme or receptor) or their vehicle were introduced into the tissue bath 30 mins prior to the addition of stimulant.
(§2) Cremophor and ricinoleic acid (Sigma Chemical company) were also diluted in ethanol. […] Ricinoleic acid was diluted in ethanol to produce final bath concentrations of (μg/ml; final bath concentration of ethanol in parentheses): 0.1 (0.1%), 0.3 (0.3%), 1.0 (0.37%), 3.0 (0.57%), 10 (0.64%), 30 (0.84%). For reference, 0.1-30 μg/ml ricinoleic acid corresponds to a molar concentration range of 0.335-100.50 μM.
(§3) Force (mean±S.E.) is expressed as a percentage of the corresponding bradykinin or phenylephrine reference response. KB values were determined by Schild analysis and KBapp by the following formula: KBapp =[antagonist]/agonist concentration ratio-1, where agonist concentration ratio=agonist EC50 measured in presence of antagonist/agonist EC50 measured in presence of vehicle. The statistical significance between means was determined using Student's t-test with p<0.05 considered statistically significant.

[2] = test system: Cremophor-induced force in the aorta (thromboxane A2 receptors); assay: Antagonism of Cremophor-induced force in the aorta; type: cell-based, rabbit
Method: Male New Zealand white rabbits were euthanized by intravenous barbiturate overdose. The thoracic aorta and the left and right external jugular veins were then removed into warm (37° C.) physiological salt solution (PSS) of the following composition (mM): NaCl, 118.4; KCl, 4.7; CaCl2, 2.5; MgSO4, 1.2; NaHCO3, 24.9; KH2 PO4, 1.2; glucose, 11.1 and EDTA, 0.023; gassed with 95% O2 /5% CO2, pH 7.4. The vessels were cleaned of fat and loose adventitia and subsequently cut into rings 3-4 mm in width. The endothelium was removed from the rings, unless otherwise indicated, by gently rotating a metal probe in the lumen of the ring. The rings were then suspended in water-jacketed (37° C.) 10 ml tissue baths between two wire holders, one of which was attached to a fixed hook and the other to an isometric force transducer. Resting tension was set at 4 g for the aorta and 1 g for the jugular vein. […]
as §3

[3] = biological target: T1, thromboxane A2 /prostaglandin endoperoxide receptor (Oryctolagus cuniculus, UniProt Q6WQI8); assay: Antagonism of U-46,619-induced force in the jugular vein; type: cell-based; conditions: rabbit jugular vein
T1 sequence (Q6WQI8 1-233): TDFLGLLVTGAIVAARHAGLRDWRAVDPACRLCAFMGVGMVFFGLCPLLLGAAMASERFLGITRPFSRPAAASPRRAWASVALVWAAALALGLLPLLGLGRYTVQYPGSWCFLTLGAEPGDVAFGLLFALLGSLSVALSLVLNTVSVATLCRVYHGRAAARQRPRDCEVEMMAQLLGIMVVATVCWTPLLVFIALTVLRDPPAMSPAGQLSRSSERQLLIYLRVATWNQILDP
Method: as §1, with “stimulant. […]” for “stimulant.”
as §3

[4] = test system: U-46,619-evoked platelet shape change; conditions: Ogletree et al 1993; cited from earlier work
[5] = test system: ricinoleic acid-induced force in the jugular vein (thromboxane A2 receptors); assay: Antagonism of ricinoleic acid-induced force in the jugular vein; type: cell-based, rabbit; conditions: for Effect on ricinoleic acid-induced force (words): indomethacin, vein only
Method: as §1, with “stimulant. A similar procedure was followed for the aorta except the effects of carbachol (1 μM) were tested against a submaximal concentration of phenylephrine (0.3 μM) and 30 μM phenylephrine was used to establish a reference contracture.” for “stimulant.”
as §2, §3

[6] = biological target: T2, ricinoleic acid-induced force in the aorta (thromboxane A2 receptors) (Oryctolagus cuniculus, UniProt Q6WQI8); assay: Antagonism of ricinoleic acid-induced force in the aorta; type: cell-based, rabbit
T2 sequence (Q6WQI8 1-233): T1 sequence (Q6WQI8 1-233)
Method: as §1, with “stimulant. […]” for “stimulant.”
as §3

[7] = test system: U-46,619-induced platelet aggregation; conditions: Ogletree et al 1993; cited from earlier work
jugular vein [8] = assay: Effect on ethanol-induced contraction of the jugular vein; type: cell-based, rabbit; conditions: 0.1 or 1 μM BMS-180291; n=3
[9] = biological target: T1, thromboxane A2 /prostaglandin endoperoxide receptor; conditions: against U-46,619-induced force; rabbit aorta; S. Moreland, unpublished; cited from earlier work
[10] = biological target: thromboxane A2 /prostaglandin endoperoxide receptor; conditions: against U-46,619-induced force; rat aorta; Ogletree et al 1993; cited from earlier work
thromboxane A2 receptors = assay: Potency of U-46,619 across rabbit jugular vein, rabbit aorta and rat aorta; type: cell-based; conditions: rabbit aorta, rat aorta, present study and cited work
[11] = test system: tissues with an intact endothelium; assay: Relaxation of endothelium-intact tissues by carbachol; type: cell-based, rabbit; conditions: Oryctolagus cuniculus; carbachol (1 μM) on bradykinin contracture
Method: Male New Zealand white rabbits were euthanized by intravenous barbiturate overdose. The thoracic aorta and the left and right external jugular veins were then removed into warm (37° C.) physiological salt solution (PSS) of the following composition (mM): NaCl, 118.4; KCl, 4.7; CaCl2, 2.5; MgSO4, 1.2; NaHCO3, 24.9; KH2 PO4, 1.2; glucose, 11.1 and EDTA, 0.023; gassed with 95% O2 /5% CO2, pH 7.4. The vessels were cleaned of fat and loose adventitia and subsequently cut into rings 3-4 mm in width. The endothelium was removed from the rings, unless otherwise indicated, by gently rotating a metal probe in the lumen of the ring. The rings were then suspended in water-jacketed (37° C.) 10 ml tissue baths between two wire holders, one of which was attached to a fixed hook and the other to an isometric force transducer. Resting tension was set at 4 g for the aorta and 1 g for the jugular vein. The venous tissues were allowed to stabilize for a period of one hour and then challenged with a maximally effective concentration of bradykinin (1 μM) to evoke a tonic contracture. This response was used as a comparative reference response. Carbachol (1 μM) was introduced into the bath following stabilization of the bradykinin contracture to test for the presence of endothelium. […]

[12] = biological target: T3, CsA-induced force development in the jugular vein (thromboxane A2 receptors) (Oryctolagus cuniculus, UniProt Q6WQI8); assay: Inhibition of CsA-induced force in the jugular vein; type: cell-based, rabbit; conditions: for Effect on potency and maximal contractile effect of CsA (words): phentolamine 10 μM
T3 sequence (Q6WQI8 1-233): T1 sequence (Q6WQI8 1-233)
Method: as §1, §2, §3

jugular vein [13] = assay: Force development in isolated jugular vein rings; type: cell-based, rabbit (male New Zealand white); conditions: for Force development / vasoconstriction (result in words): cumulative addition, isolated vessel; for EC50: read-out: EC50 for ricinoleic acid-induced force
Method: as §1, §2, §3

thromboxane A2 receptor = conditions: dog coronary artery, Cocks et al 1990; cited from earlier work
rat aorta = assay: Ricinoleic acid force development in rat aorta; type: cell-based
[14] = Solubility in physiological salt solution bath; type: physicochemical; conditions: pH 7.4, ricinoleic acid in tissue bath, read-out: Concentration at which precipitation begins
aorta = assay: Force development in isolated thoracic aorta rings; type: cell-based, rabbit (male New Zealand white)
Method: as §1, with “stimulant. […]” for “stimulant.”
as §3

Compound: CCCCCNC(=O)c1coc(C2C3CCC(O3)C2Cc2ccccc2CCC(=O)O)n1 (stereo not drawn) [BMS-180291, [1S-[1α, 2α, 3α, 4α)]-2-[[3-[[4-(pentylamino)carbonyl]-2-oxazolyl]-7-oxabicyclo [2.2.1]hept-2-yl]-methyl]benzenepropanoic acid, sodium salt]
- inhibition at 0.1 µM ([1]; Oryctolagus cuniculus, 0.1 μM BMS-180291, Cremophor 39 μg/ml, n=4, read-out: Relaxation of Cremophor-precontracted jugular vein): 85.6 ± 3.9%
- Nature of antagonism of Cremophor-induced responses ([1]; preincubation with BMS-180291 (10-300 nM), sodium salt): consistent with non-competitive antagonism; also recorded: apparently non-competitive fashion
- Effect on Cremophor-induced force in the aorta ([2]; BMS-180291): inhibited
- Kb ([2]; Oryctolagus cuniculus, against Cremophor-induced force, assuming competitive antagonism, 0.03 μM BMS-180291 only, read-out: KBapp): 6.4 nM
- Kb ([3]; against U-46,619-induced force): 3.6 nM
- Schild slope ([3]; against U-46,619-induced force): 1.0
- Nature of antagonism of U-46,619-induced force ([3]; sodium salt): apparently competitive antagonist
- Nature of antagonism of platelet shape change [4]: apparently competitive fashion
- Kb ([5]; Oryctolagus cuniculus, against ricinoleic acid, vein, assuming competition, 0.03 and 0.1 μM BMS-180291 only, read-out: KBapp): 1.9 nM
- Antagonism of ricinoleic acid-induced force ([5]; vein): concentration-dependent antagonism
- Schild slope ([6]; against ricinoleic acid, rabbit aorta): 0.70
- Kb ([6]; against ricinoleic acid, rabbit aorta, assuming competition): 4.3 nM
- Antagonism of ricinoleic acid-induced force ([6]; aorta): concentration-dependent antagonism
- Nature of inhibition of platelet aggregation [7]: apparently non-competitive fashion
- Effect on contractile effects of ethanol (jugular vein [8]): completely refractory
- Kb [9]: 4 nM
- Kb [10]: 0.6 nM

Compound: CCCCCC(O)C=CC1C2CC(CO2)C1CC=CCCCC(=O)O (centres unmarked) [U-46,619, 11,9-epoxymethano-PGH2]
- Potency across the three tissues (thromboxane A2 receptors): approximately equal potency in all three tissues

Compound: C[N+](C)(C)CCOC(N)=O [carbachol]
- Percent relaxation at 1 µM [11]: 50 to 100%

Compound: CC1(C)Oc2ccc(C#N)cc2C(N2CCCC2=O)C1O (centres unmarked) [cromakalim]
- Effect on CsA-induced force ([12]; CsA 3 μg/ml, present results): evoke relaxation of CsA (3 μg/ml CsA)-induced force

Compound: CCO [ethanol]
- Emax at 0.44 % (jugular vein [13]; Oryctolagus cuniculus, cumulative addition of 0.44% ethanol, n=3, read-out: Force as % of bradykinin reference force): 24.1 ± 3.3%
- Force development / vasoconstriction (result in words) (jugular vein [13]): constrict the vein

Compound: COc1ccc(Cl)cc1C(=O)NCCc1ccc(S(=O)(=O)NC(=O)NC2CCCCC2)cc1 [glyburide]
- Kb ([1]; Oryctolagus cuniculus, against Cremophor-induced force, glyburide 10 μM, n=3, read-out: KBapp): 900 nM
- Kb (thromboxane A2 receptor): 600 nM
- Schild slope ([12]; against CsA-induced force): 0.7
- Kb ([12]; against CsA-induced force, Schild analysis, read-out: KB): 600 nM
- Kb ([12]; against CsA-induced force, glyburide 10 μM, n=4, read-out: KBapp): 1500 nM
- inhibition at 10 µM ([12]; read-out: Inhibition (reversal) of CsA-induced contraction): 57.1%

Compound: COc1ccc2c(c1)c(CC(=O)O)c(C)n2C(=O)c1ccc(Cl)cc1 [indomethacin]
- Effect on vasoconstrictor effects of Cremophor (words) [1]: The contractile effects of neither ricinoleic acid nor Cremophor were prevented
- Effect on vasoconstrictor effects of Cremophor (words) ([1]; listed as Indomethacin): failed to significantly inhibit the vasoconstrictor effects of Cremophor
- Effect on ricinoleic acid-induced force (words) [5]: The contractile effects of neither ricinoleic acid nor Cremophor were prevented
- Effect on ricinoleic acid-induced force (words) ([5]; listed as Indomethacin): no significant effect on ricinoleic acid-induced force

Compound: Cc1ccc(N(CC2=NCCN2)c2cccc(O)c2)cc1 [phentolamine]
- Effect on potency and maximal contractile effect of CsA (words) [12]: insensitive to phentolamine; also recorded: failed to antagonize the effects of CsA
- Effect on potency and maximal contractile effect of CsA (words) ([12]; listed as Phentolamine): significantly affected neither the potency nor the maximal contractile effect of CsA

Compound: CCCCCC[C@@H](O)C/C=C\CCCCCCCC(=O)O [ricinoleic acid]
- EC50 (jugular vein [13]; Oryctolagus cuniculus, control for indomethacin comparison, n=4): 0.17 ± 0.05 µg/mL
- EC50 (jugular vein [13]; Oryctolagus cuniculus, in presence of indomethacin, n=4): 0.4 ± 0.11 µg/mL
- EC50 (jugular vein [13]; Oryctolagus cuniculus, jugular vein, molar conversion): 800 nM
- EC50 (jugular vein [13]; Oryctolagus cuniculus, jugular vein, n=9): 0.24 ± 0.04 µg/mL
- Force development / vasoconstriction (result in words) (jugular vein [13]): cause vasoconstriction
- Force development / vasoconstriction (result in words) (jugular vein [13]; listed as Ricinoleic acid): concentration-dependent increases in force
- Fold more potent than Cremophor (jugular vein [13]; in the vein): 165 times
- Fold more potent in vein than in aorta (jugular vein [13]; ricinoleic acid, vein vs aorta): approximately 20 times
- Thromboxane A2 agonist character (jugular vein [13]; summary conclusion): weak thromboxane A2 agonist
- Emax at 100 µg/mL (rat aorta; 100 μg/ml ricinoleic acid, rat aorta, n=4, read-out: Force as % of maximum phenylephrine-induced response): 18.8 ± 2.5%
- EC50 (rat aorta; rat aorta, n=4, read-out: EC50 for ricinoleic acid-induced force): > 10000 nM
- Sensitivity of rat aorta (rat aorta; vs vein or rabbit aorta): considerably less sensitive
- solubility [14]: ≥ 100 µg/mL
- EC50 (aorta; Oryctolagus cuniculus, rabbit aorta, n=5, read-out: EC50 for ricinoleic acid-induced force): 4.7 ± 0.7 µg/mL (≈ 15.7 µM)
- Force development (result in words) (aorta; aorta): concentration-dependent increases in force
- Fold more potent than Cremophor (aorta; in the aorta): 326 times
